Measured values published in patent US10683297B2 (Sunshine Lake Pharma Co., Ltd., priority 2017, dated 2020).
Marks after values point to notes of the source that are not given here.

How the values were obtained:
FLT3 (h) = molecular target: T1, FLT3 (h) (Homo sapiens, UniProt P36888); experiment: FLT3 (h) kinase assay; assay type: biochemical; details: [γ-33P-ATP] 10 μM or KM values; cells of the FLT3 (h) column without (Flt4) tag
T1 construct: purchased Millipore UK Ltd (assays performed there as a service)
T1 sequence (P36888 27-993): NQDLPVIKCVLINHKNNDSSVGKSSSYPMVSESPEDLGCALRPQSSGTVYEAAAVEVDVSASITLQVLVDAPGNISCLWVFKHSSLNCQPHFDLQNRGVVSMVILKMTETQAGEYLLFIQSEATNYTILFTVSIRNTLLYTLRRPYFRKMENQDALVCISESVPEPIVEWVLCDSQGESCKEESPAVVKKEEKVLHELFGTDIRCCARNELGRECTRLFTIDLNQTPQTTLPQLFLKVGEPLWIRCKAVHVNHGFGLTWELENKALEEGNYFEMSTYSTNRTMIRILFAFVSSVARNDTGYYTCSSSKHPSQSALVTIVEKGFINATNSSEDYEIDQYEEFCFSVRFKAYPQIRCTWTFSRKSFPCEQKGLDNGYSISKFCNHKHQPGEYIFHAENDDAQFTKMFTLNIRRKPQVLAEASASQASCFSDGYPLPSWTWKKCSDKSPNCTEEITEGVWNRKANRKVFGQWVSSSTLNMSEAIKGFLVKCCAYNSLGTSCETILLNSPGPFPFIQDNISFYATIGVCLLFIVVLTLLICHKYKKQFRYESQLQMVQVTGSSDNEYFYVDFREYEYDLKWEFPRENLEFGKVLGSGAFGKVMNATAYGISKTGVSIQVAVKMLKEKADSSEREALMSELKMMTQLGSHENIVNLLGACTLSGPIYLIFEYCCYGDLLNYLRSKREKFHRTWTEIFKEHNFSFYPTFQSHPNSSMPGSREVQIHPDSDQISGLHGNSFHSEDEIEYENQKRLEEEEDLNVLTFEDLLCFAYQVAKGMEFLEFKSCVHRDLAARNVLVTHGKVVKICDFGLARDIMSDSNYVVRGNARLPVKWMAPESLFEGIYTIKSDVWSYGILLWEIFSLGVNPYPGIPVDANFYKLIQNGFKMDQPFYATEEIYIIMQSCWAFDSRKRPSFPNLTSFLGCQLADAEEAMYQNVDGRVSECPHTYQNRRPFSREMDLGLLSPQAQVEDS
Procedure: (§1) Kinase assays can be performed by measurement of incorporation of γ-^33P ATP into immobilized myelin basic protein (MBP). High binding white 384 well plates (Greiner) are coated with MBP (Sigma # M-1891) by incubation of 60 μL well of 20 μg/mL MBP in Tris-buffered saline (TBS; 50 mM Tris pH 8.0, 138 mM NaCl, 2.7 mM KCl) for 24 h at 4° C. Plates are washed 3× with 100 μL TBS. Kinase reactions are carried out in a total volume of 34 μL in kinase buffer (according to the need to make, for example, 5 mM Hepes pH 7.6, 15 mM NaCl, 0.01% bovine gamma globulin (Sigma #1-5506), 10 mM MgCl2, 1 mM DTT, 0.02% TritonX-100). Compound dilutions are performed in DMSO and added to assay wells to a final DMSO concentration of 1%. Each data point is measured in duplicate, and at least two duplicate assays are performed for each individual compound determination. Enzyme is added to final concentrations of 10 nM or 20 nM, for example. A mixture of unlabeled ATP and γ-^33P ATP is added to start the reaction (2×10^6 cpm of γ-^33P ATP per well (3000 Ci/mmole) and 10 μM unlabeled ATP, typically. The reactions are carried out for 1 hour at room temperature with shaking. Plates are washed 7× with TBS, followed by the addition of 50 μL well scintillation fluid (Wallac). Plates are read using a Wallac Trilux counter. This is only one format of such assays; various other formats are possible, as known to one skilled in the art.
(§2) The above assay procedure can be used to determine the IC50 for inhibition and/or the inhibition constant, Ki. […] The IC50 value is estimated by preparing a 10 point curve using a ½ log dilution series (for example, a typical curve may be prepared using the following compound concentrations: 3 μM, 1 μM, 0.3 μM, 0.1 μM, 0.03 μM, 0.01 μM, 0.003 μM, 0.001 μM, 0.0003 μM and 0 μM).
FLT3 (h) is incubated with 8 mM MOPS pH 7.0, 0.2 mM EDTA, 50 μM […], 10 mM MgAcetate and [γ-^33P-ATP] […] The reaction is initiated by the addition of the MgATP mix. […]

FLT4 (h) = molecular target: T2, FLT4 (h) (Homo sapiens, UniProt P35916); experiment: FLT4 (h) kinase assay; assay type: biochemical; details: [γ-33P-ATP] 10 μM or KM values; cells tagged (Flt4); read-out: IC50 (Flt4), printed in the FLT3 (h) column
T2 construct: purchased Millipore UK Ltd (assays performed there as a service)
T2 sequence (P35916 25-1363): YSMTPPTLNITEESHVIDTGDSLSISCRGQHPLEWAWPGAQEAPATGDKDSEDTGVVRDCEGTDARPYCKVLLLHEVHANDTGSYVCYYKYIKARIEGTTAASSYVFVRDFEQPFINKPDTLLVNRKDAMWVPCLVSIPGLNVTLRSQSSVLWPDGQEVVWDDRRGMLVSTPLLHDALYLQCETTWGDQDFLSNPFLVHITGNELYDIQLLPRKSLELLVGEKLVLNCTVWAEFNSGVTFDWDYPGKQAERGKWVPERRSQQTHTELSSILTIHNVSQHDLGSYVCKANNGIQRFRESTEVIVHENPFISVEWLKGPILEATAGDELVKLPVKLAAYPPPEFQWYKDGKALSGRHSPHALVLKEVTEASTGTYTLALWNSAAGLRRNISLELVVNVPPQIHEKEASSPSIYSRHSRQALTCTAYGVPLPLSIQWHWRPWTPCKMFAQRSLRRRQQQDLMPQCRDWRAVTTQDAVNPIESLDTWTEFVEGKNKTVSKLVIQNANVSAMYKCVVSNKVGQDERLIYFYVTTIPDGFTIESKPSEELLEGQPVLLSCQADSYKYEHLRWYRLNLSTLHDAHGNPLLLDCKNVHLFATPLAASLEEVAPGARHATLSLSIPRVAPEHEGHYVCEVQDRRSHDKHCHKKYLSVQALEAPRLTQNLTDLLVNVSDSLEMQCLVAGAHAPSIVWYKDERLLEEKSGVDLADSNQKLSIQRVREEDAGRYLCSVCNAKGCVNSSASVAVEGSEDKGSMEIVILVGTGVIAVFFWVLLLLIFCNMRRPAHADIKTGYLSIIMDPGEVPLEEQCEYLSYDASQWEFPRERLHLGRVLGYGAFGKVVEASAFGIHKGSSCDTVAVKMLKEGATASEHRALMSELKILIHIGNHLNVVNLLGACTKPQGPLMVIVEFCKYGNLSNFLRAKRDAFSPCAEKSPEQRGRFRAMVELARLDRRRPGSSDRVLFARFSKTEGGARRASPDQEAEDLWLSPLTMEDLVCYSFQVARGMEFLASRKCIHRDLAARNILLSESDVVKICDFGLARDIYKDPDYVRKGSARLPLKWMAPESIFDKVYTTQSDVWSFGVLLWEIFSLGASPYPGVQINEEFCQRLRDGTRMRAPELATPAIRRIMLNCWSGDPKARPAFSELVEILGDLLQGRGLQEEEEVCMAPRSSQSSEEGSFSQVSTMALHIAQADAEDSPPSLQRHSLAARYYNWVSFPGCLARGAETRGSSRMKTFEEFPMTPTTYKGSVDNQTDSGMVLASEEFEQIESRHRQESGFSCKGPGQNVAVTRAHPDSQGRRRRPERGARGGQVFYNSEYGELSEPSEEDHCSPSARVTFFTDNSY
Procedure: as §1, §2
FLT4 (h) is incubated with 8 mM MOPS pH 7.0, 0.2 mM EDTA, 50 μM […], 10 mM MgAcetate and [γ-^33P-ATP] […] The reaction is initiated by the addition of the MgATP mix. After incubation for 40 minutes at room temperature, the reaction is stopped by the addition of 3% phosphoric acid solution. 10 μL of the reaction is then spotted onto a P30 filtermat and washed three times for 5 minutes in 75 mM phosphoric acid and once in methanol prior to drying and scintillation counting.
The kinase assays described herein were performed at Millipore UK Ltd, Dundee Technology Park, Dundee DD2 1SW, UK.

[1] = system: PMA-induced increase in mouse ear thickness and weight; experiment: Topical PMA-induced acute atopic dermatitis in ICR mice; assay type: in vivo; details: ICR female mice, 0.3 mg/ear/bid topical
Procedure: ICR female mice (20-30 g), five mice or nine mice/group, were used in this study. Five micrograms of PMA (phorbol 12-myristate 13-acetate) in 20 μL of ethanol was applied topically to the anterior and posterior surface of the right ear of each mouse. Twenty microliters of vehicle (ethanol/acetone ([…])=1/1); 0.3 mg of EX. 68 ([…]); EX. 76, EX. 50, EX. 92 or EX. 65 (0.3 mg […]) were administrated to the same areas 30 minutes before and 15 minutes after PMA application. The thickness of right ears of each mouse was measured 6 hours after PMA stimulation. Ear weight of right ears of each mouse was weighed with analytical balance Each value represents the Mean±Sem. Statistical significance compared with model groups (*P<0.05; **P<0.01). Tables 5-1, 5-2 and 5-3 listed the inhibitory effect on PMA-induced increase in mouse ear thickness and weight. The compounds of the present invention have a good inhibitory effect on PMA-induced increase in mouse ear thickness and weight.

IC50 (FLT4 (h)) [nM] | Compound | other results
 | CCC1CN(c2ccc(C#N)cn2)CCC1Nc1nc(Nc2ccn3c(C)cnc3c2)ncc1Cl (stereo not shown) [Example 2, 6-(4-((5-chloro-2-((3-methylimidazo[1,2-a]pyridin-7-yl)amino)pyrimidin-4-yl)amino)-3-ethylpiperidin-1-yl)nicotinonitrile] | IC50 (FLT3 (h)): 287 nM
 | CCC1CN(c2ccc(C#N)nn2)CCC1Nc1nc(Nc2ccn3c(C)cnc3c2)ncc1Cl (stereo not shown) [Example 3, 6-(4-((5-chloro-2-((3-methylimidazo[1,2-a]pyridin-7-yl)amino)pyrimidin-4-yl)amino)-3-ethylpiperidin-1-yl)pyridazine-3-carbonitrile] | IC50 (FLT3 (h)): 591 nM
 | Cc1cnc2cc(Nc3ncc(Cl)c(NC4CCN(c5ccc(C#N)nn5)CC4)n3)ccn12 [Example 12, 6-(4-((5-chloro-2-((3-methylimidazo[1,2-a]pyridin-7-yl)amino)pyrimidin-4-yl)amino)piperidin-1-yl)pyridazine-3-carbonitrile] | IC50 (FLT3 (h)): 667 nM
95 | CC(C)(O)c1nc2cc(Nc3ncc(Cl)c(NC4CCN(c5ccc(C#N)nn5)CC4)n3)ccn2n1 [Example 55, 6-(4-((5-chloro-2-((2-(2-hydroxypropan-2-yl)-[1,2,4]triazolo[1,5-a]pyridin-7-yl)amino)pyrimidin-4-yl)amino)piperidin-1-yl)pyridazine-3-carbonitrile] | 
20 | CC(O)Cn1cnc2cc(Nc3ncc(Cl)c(NC4CCN(c5ccc(C#N)cn5)CC4)n3)ccc21 (stereo not shown) [Example 61, 6-(4-((5-chloro-2-((1-(2-hydroxypropyl)-1H-benzo[d]imidazol-5-yl)amino)pyrimidin-4-yl)amino)piperidin-1-yl)nicotinonitrile] | 
113 | CC(C)(O)Cc1nc2ccc(Nc3ncc(Cl)c(NC4CCN(c5ccc(C#N)cn5)CC4)n3)cn2n1 [Example 67, 6-(4-((5-chloro-2-((2-(2-hydroxy-2-methylpropyl)-[1,2,4]triazolo[1,5-a]pyridin-6-yl)amino)pyrimidin-4-yl)amino)piperidin-1-yl)nicotinonitrile] | 
 | CC(C)(O)c1cnc2cc(Nc3ncc(Cl)c(NC4CCN(c5ccc(C#N)cn5)CC4)n3)ccn12 [Example 68, 6-(4-((5-chloro-2-((3-(2-hydroxypropan-2-yl)imidazo[1,2-a]pyridin-7-yl)amino)pyrimidin-4-yl)amino)piperidin-1-yl)nicotinonitrile] | Weight Inhibition ratio [1]: 80.6%; thickness (right ear) ([1]; 30 minutes before and 15 minutes after PMA, 6 hours after PMA, Mean±Sem): 0.219 ± 0.007** mm; Weight (right ear) ([1]; 30 minutes before and 15 minutes after PMA, Mean±Sem): 18.11 ± 1.14* mg; thickness Inhibition ratio ([1]; 6 hours after PMA): 86.6%
15 | CC(C)(O)Cn1nnc2cc(Nc3ncc(Cl)c(NC4CCN(c5ccc(C#N)cn5)CC4)n3)ccc21 [Example 69, 6-(4-((5-chloro-2-((1-(2-hydroxy-2-methylpropyl)-1H-benzo[d][1,2,3]triazol-5-yl)amino)pyrimidin-4-yl)amino)piperidin-1-yl)nicotinonitrile] | 
87 | CC(C)(O)Cc1cn2cc(Nc3ncc(Cl)c(NC4CCN(c5ccc(C#N)cn5)CC4)n3)ccc2n1 [Example 73, 6-(4-((5-chloro-2-((2-(2-hydroxy-2-methylpropyl)imidazo[1,2-a]pyridin-6-yl)amino)pyrimidin-4-yl)amino)piperidin-1-yl)nicotinonitrile] | 
57 | CC(C)(O)Cc1nnc2cc(Nc3ncc(Cl)c(NC4CCN(c5ccc(C#N)cn5)CC4)n3)ccn12 [Example 74, 6-(4-((5-chloro-2-((3-(2-hydroxy-2-methylpropyl)-[1,2,4]triazolo[4,3-a]pyridin-7-yl)amino)pyrimidin-4-yl)amino)piperidin-1-yl)nicotinonitrile] | 
202 | CC(C)(O)Cc1nnc2cc(Nc3ncc(Cl)c(NC4CCN(c5ccc(C#N)nn5)CC4)n3)ccn12 [Example 75, 6-(4-((5-chloro-2-((3-(2-hydroxy-2-methylpropyl)-[1,2,4]triazolo[4,3-a]pyridin-7-yl)amino)pyrimidin-4-yl)amino)piperidin-1-yl)pyridazine-3-carbonitrile] | 
166 | CC(C)(O)Cc1nc2cc(Nc3ncc(Cl)c(NC4CCN(c5ccc(C#N)nn5)CC4)n3)ccn2n1 [Example 77, 6-(4-((5-chloro-2-((2-(2-hydroxy-2-methylpropyl)-[1,2,4]triazolo[1,5-a]pyridin-7-yl)amino)pyrimidin-4-yl)amino)piperidin-1-yl)pyridazine-3-carbonitrile] | 
117 | CC(C)(O)Cc1nc2cc(Nc3ncc(Cl)c(NC4CCN(c5ccc(C#N)cn5)CC4)n3)ccn2n1 [Example 78, 6-(4-((5-chloro-2-((2-(2-hydroxy-2-methylpropyl)-[1,2,4]triazolo[1,5-a]pyridin-7-yl)amino)pyrimidin-4-yl)amino)piperidin-1-yl)nicotinonitrile] | 
